These results are taken from ChEMBL document CHEMBL5543097, “Synthesis and structure-activity relationships of novel 14-membered 2-fluoro ketolides with structural modification at the C11 position” (Eur J Med Chem, 2024).

One data set deals with Streptococcus pyogenes. The data set can be described thus: Antibacterial activity against erythromycin-resistant Streptococcus pyogenes ATCC 19615 assessed as inhibition of visible bacterial growth incubated for 18 hrs by broth microdilution method. The class given is functional.
The test system of data set [1] is Streptococcus agalactiae. The data set can be described thus: Antibacterial activity against erythromycin-resistant Streptococcus agalactiae 19-9 assessed as inhibition of visible bacterial growth incubated for 18 hrs by broth microdilution method. The class given is functional.
The subject of data set [2] is Streptococcus agalactiae. In words: Antibacterial activity against erythromycin-resistant Streptococcus agalactiae 19-8 assessed as inhibition of visible bacterial growth incubated for 18 hrs by broth microdilution method. The format is functional. Background: Broth dilution looks for growth in wells or tubes with falling amounts of substance.
The test system of data set [3] is Streptococcus pneumoniae. The data set can be described thus: Antibacterial activity against erythromycin-resistant Streptococcus pneumoniae SPN19-14 assessed as inhibition of visible bacterial growth incubated for 18 hrs by broth microdilution method. The format is functional.
Data set [4] has as its system Streptococcus pneumoniae. In words: Antibacterial activity against erythromycin-resistant Streptococcus pneumoniae SPN19-13 assessed as inhibition of visible bacterial growth incubated for 18 hrs by broth microdilution method. The class given is functional.
The subject of data set [5] is Streptococcus pneumoniae. The data set can be described thus: Antibacterial activity against erythromycin-resistant Streptococcus pneumoniae SPN19-8 assessed as inhibition of visible bacterial growth incubated for 18 hrs by broth microdilution method. The class given is functional.
The test system of data set [6] is Staphylococcus epidermidis. In words: Antibacterial activity against erythromycin-resistant Staphylococcus epidermidis 19-11 assessed as inhibition of visible bacterial growth incubated for 18 hrs by broth microdilution method. The format is functional.
Data set [7] relates to Staphylococcus epidermidis. In words: Antibacterial activity against erythromycin-resistant Staphylococcus epidermidis 19-9 assessed as inhibition of visible bacterial growth incubated for 18 hrs by broth microdilution method. The class given is functional.
Data set [8] deals with Staphylococcus epidermidis. In words: Antibacterial activity against erythromycin-resistant Staphylococcus epidermidis 19-8 assessed as inhibition of visible bacterial growth incubated for 18 hrs by broth microdilution method. The class given is functional.
The subject of data set [9] is Staphylococcus epidermidis. The data set can be described thus: Antibacterial activity against erythromycin-resistant Staphylococcus epidermidis 19-6 assessed as inhibition of visible bacterial growth incubated for 18 hrs by broth microdilution method. The format is functional.
Data set [10] deals with Staphylococcus epidermidis. In words: Antibacterial activity against erythromycin-resistant Staphylococcus epidermidis 19-4 assessed as inhibition of visible bacterial growth incubated for 18 hrs by broth microdilution method. The class given is functional.
Data set [11] concerns Staphylococcus epidermidis. The data set can be described thus: Antibacterial activity against erythromycin-resistant Staphylococcus epidermidis 19-5 assessed as inhibition of visible bacterial growth incubated for 18 hrs by broth microdilution method. The class given is functional.
The test system of data set [12] is Moraxella catarrhalis. In words: Antibacterial activity against Moraxella catarrhalis BCA 19-31 assessed as inhibition of bacterial growth incubated for 24 hrs by CLSI based broth microdilution method. The class given is functional. The note with it: BCA 19-31, 24 h.
Data set [13] concerns Haemophilus influenzae. The data set can be described thus: Antibacterial activity against Haemophilus influenzae HIN 19-15 assessed as inhibition of bacterial growth incubated for 20 to 24 hrs by CLSI based broth microdilution method. The class given is functional. The note with it: time 20-24 hrs.
Data set [14] is described as follows: Cytotoxicity against mouse AML12 cells assessed as reduction in cell viability incubated for 48 hrs by MTT assay. The class given is toxicity, cell-based. Background: Tetrazolium dyes change colour on reduction, which living cells bring about.
Data set [15] has as its system Moraxella catarrhalis. In words: Antibacterial activity against Moraxella catarrhalis BCA 19-5 assessed as inhibition of bacterial growth incubated for 24 hrs by CLSI based broth microdilution method. The format is functional. The conditions noted are these: Moraxella catarrhalis, BCA 19-5, 24 h, read-out: MIC.
The subject of data set [16] is Moraxella catarrhalis. The data set can be described thus: Antibacterial activity against Moraxella catarrhalis BCA 19-6 assessed as inhibition of bacterial growth incubated for 24 hrs by CLSI based broth microdilution method. The class given is functional. The note with it: Moraxella catarrhalis, BCA 19-6, 24 h, read-out: MIC.
Data set [17] deals with Haemophilus influenzae. In words: Antibacterial activity against Haemophilus influenzae HIN 19-18 assessed as inhibition of bacterial growth incubated for 20 to 24 hrs by CLSI based broth microdilution method. The class given is functional. The conditions noted are these: HIN 19-18, time 20-24 hrs.

Each structure is given as a SMILES string. ≈ marks a conversion by molar mass, not a printed value.

The term CC50 denotes the concentration that lowers cell viability or growth by half.

Consider `CC[C@H]1OC(=O)[C@H](C)C(=O)[C@H](C)[C@@H](O[C@@H]2O[C@H](C)C[C@H](N(C)C)[C@H]2O)[C@](C)(OC)C[C@@H](C)C(=O)[C@H](C)[C@H]2N(CCCOC(=O)Nc3ccc(C(F)(F)F)cc3)C(=O)O[C@]12C`, for which the MIC with Streptococcus pyogenes is under 0.03 µg/mL; in the data set on Streptococcus agalactiae [1], 0.5 µg/mL (≈ 0.583 µM); in the data set with Streptococcus agalactiae [2], under 0.03 µg/mL; with Streptococcus pneumoniae [3], 0.125 µg/mL (≈ 0.146 µM); in the data set with Streptococcus pneumoniae [4], 0.125 µg/mL (≈ 0.146 µM); with Streptococcus pneumoniae [5] it was 0.125 µg/mL (≈ 0.146 µM). In addition, the MIC in data set [6] is 0.125 µg/mL (≈ 0.146 µM); in [7], 0.5 µg/mL (≈ 0.583 µM); in data set [8], 0.06 µg/mL (≈ 0.0699 µM); in data set [9], 0.25 µg/mL (≈ 0.291 µM); in data set [10], 0.125 µg/mL (≈ 0.146 µM); in [11] it was 0.06 µg/mL (≈ 0.0699 µM). Further, the MIC in the data set with Moraxella catarrhalis [12] turned out to be 0.06 µg/mL (≈ 0.0699 µM); with Haemophilus influenzae [13], 4 µg/mL (≈ 4.66 µM). The cytotoxic concentration (CC50) at 48 h in data set [14] is 73.8 µM.
Consider `CC[C@H]1OC(=O)[C@@](C)(F)C(=O)[C@H](C)[C@@H](O[C@@H]2O[C@H](C)C[C@H](N(C)C)[C@H]2O)[C@](C)(OC)C[C@@H](C)C(=O)[C@H](C)[C@H]2N(CCCOC(=O)Nc3ccccc3OC)C(=O)O[C@]12C`, for which the MIC is under 0.03 µg/mL in the data set on Streptococcus pyogenes; 0.5 µg/mL (≈ 0.597 µM) in the data set on Streptococcus agalactiae [1]; under 0.03 µg/mL in the data set with Streptococcus agalactiae [2]; 0.125 µg/mL (≈ 0.149 µM) with Streptococcus pneumoniae [3]; 0.125 µg/mL (≈ 0.149 µM) in the data set with Streptococcus pneumoniae [4]; 0.125 µg/mL (≈ 0.149 µM) in the data set with Streptococcus pneumoniae [5]. Moreover, the MIC in data set [6] came to 0.125 µg/mL (≈ 0.149 µM); in data set [7], 0.25 µg/mL (≈ 0.298 µM); in data set [8], 0.06 µg/mL (≈ 0.0716 µM); in [9], 0.125 µg/mL (≈ 0.149 µM); in data set [10], 0.06 µg/mL (≈ 0.0716 µM); in [11], 0.06 µg/mL (≈ 0.0716 µM). Besides, the MIC in the data set on Moraxella catarrhalis [15] was 11.1 µg/mL (≈ 13.2 µM); in the data set on Moraxella catarrhalis [16], 0.41 µg/mL (≈ 0.489 µM); in the data set with Moraxella catarrhalis [12], 0.125 µg/mL (≈ 0.149 µM); in the data set with Haemophilus influenzae [13], 8 µg/mL (≈ 9.55 µM). Also, the half-maximal cytotoxic concentration (CC50) at 48 h in data set [14] turned out to be 83.8 µM.
As for `CCc1ccc(NC(=O)OCCCN2C(=O)O[C@]3(C)[C@@H](CC)OC(=O)[C@@](C)(F)C(=O)[C@H](C)[C@@H](O[C@@H]4O[C@H](C)C[C@H](N(C)C)[C@H]4O)[C@](C)(OC)C[C@@H](C)C(=O)[C@H](C)[C@@H]23)cc1`, the MIC in the data set with Streptococcus pyogenes was under 0.03 µg/mL; in the data set with Streptococcus agalactiae [1], 0.5 µg/mL (≈ 0.598 µM); with Streptococcus agalactiae [2], under 0.03 µg/mL; in the data set on Streptococcus pneumoniae [3] it was under 0.03 µg/mL; in the data set on Streptococcus pneumoniae [4], 0.06 µg/mL (≈ 0.0718 µM); in the data set on Streptococcus pneumoniae [5], 0.125 µg/mL (≈ 0.15 µM). The MIC in data set [6] was 0.03 µg/mL (≈ 0.0359 µM); in data set [7], 0.125 µg/mL (≈ 0.15 µM); in data set [8], under 0.03 µg/mL; in data set [9], under 0.03 µg/mL; in [10] it was under 0.03 µg/mL; in data set [11] it was under 0.03 µg/mL. Further, the CC50 at 48 h in [14] amounted to 25.6 µM.
Turning to `CC[C@H]1OC(=O)[C@@](C)(F)C(=O)[C@H](C)[C@@H](O[C@@H]2O[C@H](C)C[C@H](N(C)C)[C@H]2O)[C@](C)(OC)C[C@@H](C)C(=O)[C@H](C)[C@H]2N(CCCOC(=O)Nc3ccc(-c4ccccc4)cc3)C(=O)O[C@]12C`, the MIC in the data set on Streptococcus pyogenes is under 0.03 µg/mL; in the data set on Streptococcus agalactiae [1], 4 µg/mL (≈ 4.52 µM); with Streptococcus agalactiae [2] it was under 0.03 µg/mL; with Streptococcus pneumoniae [3] it was 0.125 µg/mL (≈ 0.141 µM); in the data set on Streptococcus pneumoniae [4], 1 µg/mL (≈ 1.13 µM); in the data set on Streptococcus pneumoniae [5] it was 1 µg/mL (≈ 1.13 µM). In addition, the MIC in [6] is 0.5 µg/mL (≈ 0.566 µM); in data set [7], 0.5 µg/mL (≈ 0.566 µM); in data set [8], 0.25 µg/mL (≈ 0.283 µM); in data set [9], 1 µg/mL (≈ 1.13 µM); in data set [10], 0.125 µg/mL (≈ 0.141 µM); in data set [11], under 0.03 µg/mL. Moreover, the MIC in the data set with Moraxella catarrhalis [16] worked out at 1 µg/mL (≈ 1.13 µM); with Moraxella catarrhalis [12] it was 1 µg/mL (≈ 1.13 µM); in the data set with Haemophilus influenzae [13], 32 µg/mL (≈ 36.2 µM); in the data set on Haemophilus influenzae [17], 8 µg/mL (≈ 9.05 µM). For the same compound, the 50% cytotoxic concentration (CC50) at 48 h in data set [14] was 20.7 µM.
